Measurements from publication PMC7745125 (Science (New York, N.y.), 2019).

Assays:
[1] = target: T1, tyrosine decarboxylase (TyrDC) (Enterococcus faecalis, UniProt P0DTQ4); assay: enzyme kinetics of TyrDC in vitro; format: biochemical
T1 sequence (P0DTQ4 1-620): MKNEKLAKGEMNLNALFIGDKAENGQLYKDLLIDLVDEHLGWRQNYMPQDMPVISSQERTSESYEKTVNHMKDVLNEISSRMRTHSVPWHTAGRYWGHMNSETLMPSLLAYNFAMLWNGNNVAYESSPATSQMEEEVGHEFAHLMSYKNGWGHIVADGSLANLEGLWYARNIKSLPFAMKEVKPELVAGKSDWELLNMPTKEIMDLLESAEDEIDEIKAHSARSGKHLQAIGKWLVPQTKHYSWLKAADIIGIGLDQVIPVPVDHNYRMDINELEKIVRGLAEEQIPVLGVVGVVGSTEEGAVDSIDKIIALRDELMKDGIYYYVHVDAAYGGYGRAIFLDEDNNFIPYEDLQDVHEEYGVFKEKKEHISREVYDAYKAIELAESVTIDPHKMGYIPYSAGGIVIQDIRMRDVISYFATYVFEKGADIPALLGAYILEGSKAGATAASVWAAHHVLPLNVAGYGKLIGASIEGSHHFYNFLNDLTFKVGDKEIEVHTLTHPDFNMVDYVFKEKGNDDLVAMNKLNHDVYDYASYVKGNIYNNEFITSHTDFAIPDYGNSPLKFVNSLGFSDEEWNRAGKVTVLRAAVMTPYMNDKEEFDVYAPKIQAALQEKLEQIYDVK

[2] = target: T1, tyrosine decarboxylase (TyrDC)

Row | Km [2] [µM] | Structure (SMILES) | enzyme kinetics of TyrDC in vitro [1]
1 |  | N[C@@H](Cc1ccc(O)cc1)C(=O)O [L-tyrosine] | In vitro characterization of TyrDC revealed a fivefold higher catalytic efficiency toward L-tyrosine compared with L-dopa
2 | 1500 | N[C@@H](Cc1ccc(O)c(O)c1)C(=O)O [L-dopa] | 
